This note sets out measurements from patent US20200326333A1, “DIAGNOSIS AND TREATMENT OF AUTOIMMUNE DISEASES” (OP-T LLC, priority 2019, published 2020).

In assay [1] the test system is integrins from CD4lo cells (CD4loCD40+; Th40). The experiment in a line: KGYY15 immunoprecipitation with western blot, CD4lo cells. In kind it is binding, mouse. From the text:
(§1) FIG. 10A, FIG. 10B, FIG. 10C-1, FIG. 10C-2, FIG. 10D, FIG. 10E, FIG. 10F, FIG. 10G, FIG. 10H-1, FIG. 10H-2, FIG. 10I, FIG. 10J-1, FIG. 10J-2, and FIG. 10J-3 provide blots, tables, graphs, charts, and plots related to additional biomarkers, receptors, and peptides that may bind thereto. The blots of FIG. 10A, FIG. 10B, FIGS. 10C-1, 10C-2 and FIG. 10D provide immunoprecipitation results of western blots. […] FIG. 10E provides a table of when KGYY15 eluates from mouse PBMR, MHCII+, CD4hi or CD4lo cells in protein sequencing, for integrins and proteins listed in FIG. 10E. FIG. 10F provides results of a western blot when 3 different CD40 antibodies were used in immunoprecipitations on cells that had been incubated with mKGYY15-biotin prior to lysis. FIG. 10H-1 and FIG. 10H-2, FIG. 10I, and FIG. 10J-1, FIG. 10J-2, and FIG. 10J-3 provide additional binding tests and studies that were done regarding peptides of KGYY-4, KGYY-6, and KGYY6-Val.
A general note: A western blot detects proteins with antibodies after separation by electrophoresis.

The test system of assay [2] is integrins from CD4hi cells (CD4+CD40−). Kind of assay: KGYY15 immunoprecipitation with western blot, CD4hi cells. In kind it is binding, mouse. The following applies: αL more prominently from autoimmune NOD and αD from control Balb/c cells.
Source text: as §1

For the sequence “VLQWAKKGYYTMKSN [KGYY15, 15-mer CD154-derived peptide around the KGYY core]”, the β3 immunoprecipitation entry in assay [1] (cell population not stated) is recorded as “not β3”. Also, the “integrins immunoprecipitated from CD4lo cells” value in assay [1] (more prominently from autoimmune NOD cells than from control Balb/c cells) is “immunoprecipitated primarily αM, αD and β2”. For the same sequence, the CD11a immunoprecipitation result in assay [1] (several differentially glycosylated (presumably) bands) was “immunoprecipitated but only from NOD CD4lo cells”. For the same sequence, the “integrins immunoprecipitated from CD4hi cells” value in assay [2] was “immunoprecipitated primarily αL, αD and β2”.
